In patent US20250221998A1, “DISCOVERY OF COVALENT EGFR INHIBITOR THROUGH CYSTEINE 775” (Dana-Farber Cancer Institute, Inc., priority 2022, published 2025):

Columns and labels:
Format in all cases: cell-based, murine
[1] = target: EGFR L858R/C797S Ba/F3 cells (Homo sapiens, UniProt P00533, C797S/L858R, cells depend on it); test: Ba/F3 cell proliferation (Cell Titer Glo), EGFR L858R/C797S; conditions: 72 hours exposure, read-out: L858R/C797S (μM), inhibitory activity against EGFR mutants
How it was run: (§1)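 Ba/F3 cells stably expressing retrovirally transduced EGFR L858R, L858R/C797S or L858R/C775S, puromycin-selected. Compound exposure 72 hours in triplicate; viability by Cell Titer Glo ATP luminescence.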

[2] = target: EGFR mutant L858R Ba/F3 cells (Homo sapiens, UniProt P00533, L858R, cells depend on it); test: Ba/F3 cell proliferation (Cell Titer Glo), EGFR L858R; conditions: 72 hours exposure, read-out: L858R BaF3 (μM), inhibitory activity against EGFR mutants
Chain of EGFR mutant L858R Ba/F3 cells (P00533 whole entry L858R): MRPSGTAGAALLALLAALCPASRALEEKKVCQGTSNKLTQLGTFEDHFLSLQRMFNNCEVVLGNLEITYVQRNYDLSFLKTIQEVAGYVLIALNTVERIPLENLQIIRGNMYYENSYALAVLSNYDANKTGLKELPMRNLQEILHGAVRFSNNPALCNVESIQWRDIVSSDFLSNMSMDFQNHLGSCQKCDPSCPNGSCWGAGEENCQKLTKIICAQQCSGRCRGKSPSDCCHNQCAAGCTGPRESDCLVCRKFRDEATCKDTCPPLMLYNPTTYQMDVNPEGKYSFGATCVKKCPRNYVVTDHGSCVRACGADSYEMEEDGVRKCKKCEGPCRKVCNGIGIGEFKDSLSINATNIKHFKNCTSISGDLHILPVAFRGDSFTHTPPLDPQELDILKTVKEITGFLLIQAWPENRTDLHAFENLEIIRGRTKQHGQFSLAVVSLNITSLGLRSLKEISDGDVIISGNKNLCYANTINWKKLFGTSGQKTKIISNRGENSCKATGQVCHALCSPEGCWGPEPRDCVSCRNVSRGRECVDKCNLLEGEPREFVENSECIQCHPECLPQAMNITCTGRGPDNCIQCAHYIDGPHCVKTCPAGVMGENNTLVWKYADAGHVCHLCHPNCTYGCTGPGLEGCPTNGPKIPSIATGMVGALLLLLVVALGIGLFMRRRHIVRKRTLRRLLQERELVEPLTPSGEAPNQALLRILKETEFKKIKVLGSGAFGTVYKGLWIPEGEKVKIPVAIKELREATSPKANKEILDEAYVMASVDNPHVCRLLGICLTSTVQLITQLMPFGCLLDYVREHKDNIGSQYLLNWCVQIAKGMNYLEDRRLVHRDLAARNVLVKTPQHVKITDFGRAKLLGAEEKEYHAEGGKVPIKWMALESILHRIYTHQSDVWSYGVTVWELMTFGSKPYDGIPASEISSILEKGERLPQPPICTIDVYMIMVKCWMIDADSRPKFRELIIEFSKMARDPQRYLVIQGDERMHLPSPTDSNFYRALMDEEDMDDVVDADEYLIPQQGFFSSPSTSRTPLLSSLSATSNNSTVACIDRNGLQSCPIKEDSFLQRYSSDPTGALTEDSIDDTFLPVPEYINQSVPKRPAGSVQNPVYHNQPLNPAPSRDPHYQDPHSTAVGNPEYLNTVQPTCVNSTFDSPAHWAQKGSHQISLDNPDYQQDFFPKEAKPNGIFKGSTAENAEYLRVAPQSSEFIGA
How it was run: as §1

[3] = target: EGFR L858R/C775S Ba/F3 cells (Homo sapiens, UniProt P00533, C775S/L858R, cells depend on it); test: Ba/F3 cell proliferation (Cell Titer Glo), EGFR L858R/C775S; conditions: 72 hours exposure, read-out: L858R/C775S (μM), inhibitory activity against EGFR mutants
Chain of EGFR L858R/C775S Ba/F3 cells (P00533 whole entry C775S/L858R, the tested form may be a part): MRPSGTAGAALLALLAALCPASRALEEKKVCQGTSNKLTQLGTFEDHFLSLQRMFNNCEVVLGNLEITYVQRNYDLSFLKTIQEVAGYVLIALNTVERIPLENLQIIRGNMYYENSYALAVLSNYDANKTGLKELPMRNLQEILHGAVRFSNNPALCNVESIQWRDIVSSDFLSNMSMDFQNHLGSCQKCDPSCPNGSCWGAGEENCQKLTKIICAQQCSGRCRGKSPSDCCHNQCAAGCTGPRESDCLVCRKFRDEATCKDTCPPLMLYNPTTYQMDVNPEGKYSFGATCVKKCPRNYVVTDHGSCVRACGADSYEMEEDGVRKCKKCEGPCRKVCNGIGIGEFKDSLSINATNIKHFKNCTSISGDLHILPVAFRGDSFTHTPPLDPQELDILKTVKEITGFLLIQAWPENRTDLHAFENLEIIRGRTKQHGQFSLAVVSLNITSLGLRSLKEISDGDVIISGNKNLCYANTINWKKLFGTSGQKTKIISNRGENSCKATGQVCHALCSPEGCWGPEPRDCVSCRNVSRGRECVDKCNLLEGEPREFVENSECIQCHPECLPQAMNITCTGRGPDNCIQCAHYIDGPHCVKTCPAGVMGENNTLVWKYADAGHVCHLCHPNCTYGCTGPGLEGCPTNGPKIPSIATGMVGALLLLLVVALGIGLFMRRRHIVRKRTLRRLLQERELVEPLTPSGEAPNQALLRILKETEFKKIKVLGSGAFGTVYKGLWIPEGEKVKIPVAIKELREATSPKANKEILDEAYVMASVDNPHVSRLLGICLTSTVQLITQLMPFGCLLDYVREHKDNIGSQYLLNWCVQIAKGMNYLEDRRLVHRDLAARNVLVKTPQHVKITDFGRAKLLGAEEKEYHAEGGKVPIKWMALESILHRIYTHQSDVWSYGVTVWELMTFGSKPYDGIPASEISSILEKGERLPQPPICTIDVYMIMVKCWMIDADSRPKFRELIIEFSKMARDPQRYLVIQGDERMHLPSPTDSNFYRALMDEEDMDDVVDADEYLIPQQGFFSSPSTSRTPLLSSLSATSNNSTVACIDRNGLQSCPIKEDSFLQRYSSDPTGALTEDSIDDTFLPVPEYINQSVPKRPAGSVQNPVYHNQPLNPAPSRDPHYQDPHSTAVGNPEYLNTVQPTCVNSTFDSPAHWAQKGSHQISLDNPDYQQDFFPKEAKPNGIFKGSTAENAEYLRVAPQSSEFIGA
Excerpt: The EGFR mutant L858R Ba/F3 cells have been previously described (Zhou, W., et al. Nature 462, 2009, 1070-1074). The EGFR C797S and C775S mutations were introduced via site directed mutagenesis using the Quick Change Site-Directed Mutagenesis kit into a vector containing EGFR L858R mutation (Stratagene; La Jolla, CA) according to the manufacturer's instructions. All constructs were confirmed by DNA sequencing. The constructs were then shuttled into the retroviral vector JP1540 by either using the Cre-recombination system (Agilent Technologies, Santa Clara, CA) or the In-fusion HD Cloning kit (Takara Bio USA, Inc.; Mountain view, CA). Ba/F3 cells were then infected with retrovirus per standard protocols, as described previously (Zhou, et al, Nature 2009). Stable clones were obtained by selection in puromycin (2 ug/ml). All BaF/3 mutant cells were maintained in RPMI 1640 (Cellgro; Mediatech Inc., Herndon, CA) supplemented with 10% FBS, 100 units/mL penicillin, 100 units/mL streptomycin.
Growth and inhibition of growth was assessed by the Cell Titer Glo assay (Promega, Madison, WI) and was performed according to the manufacturer's instructions. The Cell Titer Glo assay is a luminescence-based method used to determine the number of viable cells based on quantitation of the ATP present, which is directly proportional to the amount of metabolically active cells present. Ba/F3 cells of different EGFR genotypes were exposed to compounds for 72 hours and the number of cells used per experiment was determined empirically as has been previously established (Zhou, et al., Nature 2009). All experimental points were set up in triplicates in 384-well plates. […] The curves were fitted using a non-linear regression model with a sigmoidal dose response.
For inhibitory activity against EGFR mutants, the following designations are used: ≤0·25 μM=A, 0·25 μM˜0.5 μM=B, 0.5 μM˜2.5 μM=C, ≥2.5 μM=D.

Chain of EGFR L858R/C797S Ba/F3 cells (P00533 whole entry C797S/L858R): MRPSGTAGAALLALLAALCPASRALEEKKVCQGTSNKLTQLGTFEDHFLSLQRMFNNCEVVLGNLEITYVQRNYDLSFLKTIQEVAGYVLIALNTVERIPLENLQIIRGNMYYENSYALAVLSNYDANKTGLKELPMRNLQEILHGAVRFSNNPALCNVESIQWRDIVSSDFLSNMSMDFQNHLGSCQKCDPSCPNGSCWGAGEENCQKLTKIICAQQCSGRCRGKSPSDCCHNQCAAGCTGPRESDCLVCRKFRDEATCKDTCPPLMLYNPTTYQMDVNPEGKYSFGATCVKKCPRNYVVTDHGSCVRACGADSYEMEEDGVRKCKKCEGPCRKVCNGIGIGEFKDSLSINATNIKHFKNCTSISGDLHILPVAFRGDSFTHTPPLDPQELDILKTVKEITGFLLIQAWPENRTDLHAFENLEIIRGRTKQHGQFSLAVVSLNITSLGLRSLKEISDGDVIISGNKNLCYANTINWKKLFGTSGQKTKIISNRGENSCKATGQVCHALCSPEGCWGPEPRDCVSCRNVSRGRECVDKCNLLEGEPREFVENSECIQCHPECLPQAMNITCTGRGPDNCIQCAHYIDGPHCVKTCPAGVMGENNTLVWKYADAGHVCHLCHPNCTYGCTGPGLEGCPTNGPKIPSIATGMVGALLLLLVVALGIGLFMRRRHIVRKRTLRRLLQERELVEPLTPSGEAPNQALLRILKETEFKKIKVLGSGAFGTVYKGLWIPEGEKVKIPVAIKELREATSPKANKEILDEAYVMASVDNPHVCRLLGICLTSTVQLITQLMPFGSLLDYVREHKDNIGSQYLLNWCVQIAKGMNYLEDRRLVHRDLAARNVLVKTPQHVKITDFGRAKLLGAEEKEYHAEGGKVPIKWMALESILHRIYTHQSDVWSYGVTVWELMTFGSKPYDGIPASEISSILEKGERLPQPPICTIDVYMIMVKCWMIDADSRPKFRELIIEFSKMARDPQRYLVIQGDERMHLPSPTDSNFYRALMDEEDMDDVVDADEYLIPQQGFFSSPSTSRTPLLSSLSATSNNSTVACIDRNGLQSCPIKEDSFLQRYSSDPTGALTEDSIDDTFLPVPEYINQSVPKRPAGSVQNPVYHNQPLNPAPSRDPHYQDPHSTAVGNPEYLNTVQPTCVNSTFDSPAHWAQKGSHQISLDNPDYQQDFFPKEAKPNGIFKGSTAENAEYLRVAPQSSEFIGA

Row | SMILES | GI50 [1] | GI50 [2] | GI50 [3]
1 | C=CC(=O)N1CCN(c2cc3cnc(Nc4ccc(N5CCN(C)CC5)cc4)nc3n(C)c2=O)c2ccccc21 [Compound 010, 8-methyl-2-[4-(4-methylpiperazin-1-yl)anilino]-6-(4-prop-2-enoyl-2,3-dihydroquinoxalin-1-yl)pyrido[2,3-d]pyrimidin-7-one] | ≤ 0.25 µM | ≤ 0.25 µM | ≥ 2.5 µM
2 | C=CC(=O)N1CCc2cccc(Oc3cc4cnc(Nc5ccc(N6CCN(C)CC6)cc5)nc4n(C)c3=O)c21 [Compound 003] | ≥ 2.5 µM | 0.5 to 2.5 µM | 0.5 to 2.5 µM
3 | C=CC(=O)Nc1ccccc1Oc1cc2cnc(Nc3ccc(N4CCN(C)CC4)nc3)nc2n(C)c1=O [Compound 005] | ≥ 2.5 µM | 0.5 to 2.5 µM | ≥ 2.5 µM
4 | C=CC(=O)Nc1ccccc1Oc1cc2cnc(Nc3ccc(N4CCN(C)CC4)cc3)nc2n(C)c1=O [Compound 002, N-[2-[8-methyl-2-[4-(4-methylpiperazin-1-yl)anilino]-7-oxo-pyrido[2,3-d]pyrimidin-6-yl]oxyphenyl]prop-2-enamide] | 0.25 to 0.5 µM | ≤ 0.25 µM | ≥ 2.5 µM
5 | C=CC(=O)Nc1ccccc1Oc1cc2cnc(Nc3ccc(N4CCN(C)CC4)cc3OC)nc2n(C)c1=O [Compound 004] | 0.5 to 2.5 µM | 0.25 to 0.5 µM | ≥ 2.5 µM
6 | C=CC(=O)N1CCN(c2cc3cnc(Nc4ccc(N5CCN(C)CC5)cc4)nc3n(C)c2=O)CC1 [Compound 009, 8-methyl-2-[4-(4-methylpiperazin-1-yl)anilino]-6-(4-prop-2-enoylpiperazin-1-yl)pyrido[2,3-d]pyrimidin-7-one] | ≥ 2.5 µM | ≥ 2.5 µM | ≥ 2.5 µM
7 | C#CC(=O)Nc1ccccc1Oc1cc2cnc(Nc3ccc(N4CCN(C)CC4)cc3)nc2n(C)c1=O [Compound 006, N-[2-[8-methyl-2-[4-(4-methylpiperazin-1-yl)anilino]-7-oxo-pyrido[2,3-d]pyrimidin-6-yl]oxyphenyl]prop-2-ynamide] | ≥ 2.5 µM | 0.25 to 0.5 µM | ≥ 2.5 µM
8 | C=CC(=O)N1CCN(c2cc3cnc(Nc4ccc(CS(=O)(=O)NC)cc4)nc3n(C)c2=O)c2cccc(C)c21 [Compound 034, N-methyl-1-[4-[[8-methyl-6-(5-methyl-4-prop-2-enoyl-2,3-dihydroquinoxalin-1-yl)-7-oxo-pyrido[2,3-d]pyrimidin-2-yl]amino]phenyl]methanesulfonamide] | ≤ 0.25 µM | ≤ 0.25 µM | 
9 | C=CC(=O)N1CCN(c2cc3cnc(Nc4ccc(OCCN(C)C)cc4)nc3n(C3CC(OC)C3)c2=O)c2cccc(C)c21 (stereo not drawn) [Compound 071, 2-[4-[2-(dimethylamino)ethoxy]anilino]-8-(3-methoxycyclobutyl)-6-(5-methyl-4-prop-2-enoyl-2,3-dihydroquinoxalin-1-yl)pyrido[2,3-d]pyrimidin-7-one] | ≤ 0.25 µM | ≤ 0.25 µM | 
10 | C=CC(=O)N1CCN(c2cc3cnc(Nc4ccc(OCCN(C)C)cc4)nc3n(C)c2=O)c2cccc(O)c21 [Compound 066, 2-[4-[2-(dimethylamino)ethoxy]anilino]-6-(5-hydroxy-4-prop-2-enoyl-2,3-dihydroquinoxalin-1-yl)-8-methyl-pyrido[2,3-d]pyrimidin-7-one] | ≤ 0.25 µM | ≤ 0.25 µM | 
11 | C=CC(=O)N1CCN(c2cc3cnc(NC4CC4)nc3n(C)c2=O)c2cccc(C)c21 [Compound 083, 2-(cyclopropylamino)-8-methyl-6-(5-methyl-4-prop-2-enoyl-2,3-dihydroquinoxalin-1-yl)pyrido[2,3-d]pyrimidin-7-one] | 0.5 to 2.5 µM | 0.5 to 2.5 µM | 
12 | C=CC(=O)Nc1ccccc1Oc1cc2cnc(Nc3ccc(N4CCN(C)CC4)cc3)nc2n(-c2cccc(NC(C)=O)c2)c1=O [Compound 008] | ≥ 2.5 µM | 0.5 to 2.5 µM | ≥ 2.5 µM
13 | C=CC(=O)N1CCN(c2cc3cnc(Nc4ccc(N5CCN(C)CC5)c(F)c4)nc3n(C)c2=O)c2cccc(C)c21 [Compound 040] | ≤ 0.25 µM | ≤ 0.25 µM | 
14 | C=CC(=O)N1CCN(c2cc3cnc(NC4CC4)nc3n(-c3ccc(N(C)CCOC)cc3)c2=O)c2cccc(C)c21 [Compound 100, 2-(cyclopropylamino)-8-[4-[2-methoxyethyl(methyl)amino]phenyl]-6-(5-methyl-4-prop-2-enoyl-2,3-dihydroquinoxalin-1-yl)pyrido[2,3-d]pyrimidin-7-one] | ≤ 0.25 µM | ≤ 0.25 µM | 
15 | C=CC(=O)N1CCN(c2cc3cnc(Nc4ccc(OCCN(C)C)cc4)nc3n(C3CCOC3)c2=O)c2cccc(C)c21 (stereo not drawn) [Compound 072, 2-[4-[2-(dimethylamino)ethoxy]anilino]-6-(5-methyl-4-prop-2-enoyl-2,3-dihydroquinoxalin-1-yl)-8-tetrahydrofuran-3-yl-pyrido[2,3-d]pyrimidin-7-one] | ≤ 0.25 µM | ≤ 0.25 µM | 
16 | C=CC(=O)N1CCN(c2cc3cnc(NC4CC4)nc3n(-c3ccc(OCCN(C)C)cc3)c2=O)c2cccc(C)c21 [Compound 082, 2-(cyclopropylamino)-8-[4-[2-(dimethylamino)ethoxy]phenyl]-6-(5-methyl-4-prop-2-enoyl-2,3-dihydroquinoxalin-1-yl)pyrido[2,3-d]pyrimidin-7-one] | ≤ 0.25 µM | ≤ 0.25 µM | 
17 | C=CC(=O)N1CCN(c2cc3cnc(Nc4ccccc4)nc3n([C@H]3C[C@H](O)C3)c2=O)c2cccc(C)c21 [Compound 070] | ≤ 0.25 µM | ≤ 0.25 µM | 
18 | C=CC(=O)N1CCN(c2cc3cnc(NC4CC4)nc3n(C3CCOCC3)c2=O)c2cccc(C)c21 [Compound 097, 2-(cyclopropylamino)-6-(5-methyl-4-prop-2-enoyl-2,3-dihydroquinoxalin-1-yl)-8-tetrahydropyran-4-yl-pyrido[2,3-d]pyrimidin-7-one] | ≤ 0.25 µM | ≤ 0.25 µM | 
19 | C=CC(=O)Nc1ccccc1Cc1cc2cnc(Nc3ccc(N4CCN(C)CC4)cc3)nc2n(C)c1=O [Compound 001, N-[2-[[8-methyl-2-[4-(4-methylpiperazin-1-yl)anilino]-7-oxo-pyrido[2,3-d]pyrimidin-6-yl]methyl]phenyl]prop-2-enamide] | 0.5 to 2.5 µM | 0.25 to 0.5 µM | 0.5 to 2.5 µM
20 | C=C(F)C(=O)NC1CCCN(c2cc3cnc(Nc4cnn(CCO)c4)nc3n(C)c2=O)C1 (stereo not drawn) [Compound 016, 2-fluoro-N-[1-[2-[[1-(2-hydroxyethyl)pyrazol-4-yl]amino]-8-methyl-7-oxo-pyrido[2,3-d]pyrimidin-6-yl]-3-piperidyl]prop-2-enamide] | ≥ 2.5 µM | ≥ 2.5 µM | 
21 | C=CC(=O)N1CCN(c2cc3cnc(N)nc3n(-c3ccc(N(C)CCOC)cc3)c2=O)c2cccc(C)c21 [Compound 099, 2-amino-8-[4-[2-methoxyethyl(methyl)amino]phenyl]-6-(5-methyl-4-prop-2-enoyl-2,3-dihydroquinoxalin-1-yl)pyrido[2,3-d]pyrimidin-7-one] | ≤ 0.25 µM | ≤ 0.25 µM | 
22 | C=CC(=O)Nc1ccccc1Oc1cc2cnc(Nc3ccc(N4CCN(C)CC4)cc3)nc2n(C2CCCN(C(C)=O)C2)c1=O (stereo not drawn) [Compound 007, N-[2-[8-(1-acetyl-3-piperidyl)-2-[4-(4-methylpiperazin-1-yl)anilino]-7-oxo-pyrido[2,3-d]pyrimidin-6-yl]oxyphenyl]prop-2-enamide] | ≥ 2.5 µM | 0.25 to 0.5 µM | ≥ 2.5 µM
23 | C=CC(=O)N1CCN(c2cc3cnc(Nc4ccc(OCCN(C)C)cc4)nc3n(CC(C)(C)O)c2=O)c2cccc(C)c21 [Compound 058, 2-[4-[2-(dimethylamino)ethoxy]anilino]-8-(2-hydroxy-2-methyl-propyl)-6-(5-methyl-4-prop-2-enoyl-2,3-dihydroquinoxalin-1-yl)pyrido[2,3-d]pyrimidin-7-one] | ≤ 0.25 µM | ≤ 0.25 µM | 
24 | C=CC(=O)N1CC(C)N(c2cc3cnc(Nc4ccc(N5CCN(C)CC5)cc4)nc3n(C)c2=O)C(C)C1 (stereo not drawn) [Compound 022, 6-(2,6-dimethyl-4-prop-2-enoyl-piperazin-1-yl)-8-methyl-2-[4-(4-methylpiperazin-1-yl)anilino]pyrido[2,3-d]pyrimidin-7-one] | ≥ 2.5 µM | ≥ 2.5 µM | 
25 | C=CC(=O)N1CCN(c2cc3cnc(Nc4ccc(OCCN(C)C)c(F)c4)nc3n(C)c2=O)c2cccc(C)c21 [Compound 075] | ≤ 0.25 µM | ≤ 0.25 µM | 
